For 24 compounds, IC50 results are on record in patent US7893077B2, “Bisaryl-sulfonamides” (Amgen Inc., priority 2004, dated 2011).

In this assay the target is T1, PPARγ (Homo sapiens, UniProt P37231).
T1 construct: made in house
T1 sequence (P37231 1-505): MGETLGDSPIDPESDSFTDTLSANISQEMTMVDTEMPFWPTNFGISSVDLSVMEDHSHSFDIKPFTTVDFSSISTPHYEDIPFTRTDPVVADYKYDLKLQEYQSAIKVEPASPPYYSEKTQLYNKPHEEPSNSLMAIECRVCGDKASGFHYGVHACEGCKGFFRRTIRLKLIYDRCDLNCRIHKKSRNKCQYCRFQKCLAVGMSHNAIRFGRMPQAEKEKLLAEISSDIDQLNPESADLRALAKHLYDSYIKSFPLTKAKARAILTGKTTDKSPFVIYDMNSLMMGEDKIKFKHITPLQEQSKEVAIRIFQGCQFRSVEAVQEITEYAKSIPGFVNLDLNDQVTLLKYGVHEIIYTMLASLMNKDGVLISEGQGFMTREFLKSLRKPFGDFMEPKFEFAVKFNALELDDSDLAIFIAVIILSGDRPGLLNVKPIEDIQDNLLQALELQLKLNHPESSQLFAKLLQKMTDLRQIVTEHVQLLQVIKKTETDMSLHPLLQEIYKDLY
Put plainly: PPARγ ligand binding assay utilizing [3H]-BRL 49653 as the radioligand (filtration). The conditions noted are these: concentration required to reduce by 50% the specific binding of [3H]-BRL 49653. The source says:
The compounds of the present invention can be evaluated for modulation of the PPARγ receptor using assays such as those described in Jiang, et al., Nature 391:82-86 (1998), Ricote, et al., Nature 391:79-82 (1998) and Lehmann, et al., J. Biol. Chem. 270(12): 12953-12956 (1995). Alternatively, the compounds can be evaluated for their ability to displace radiolabeled BRL 49653 from a PPARγ-GST fusion protein as follows:
PPARγ-GST fusion protein (prepared according to standard procedures), [^3H]-BRL 49653 having 50 Ci/mmol specific activity, Polyfiltronics Unifilter 350 filtration plate and glutathione-Sepharose® beads (from Pharmacia: washed twice with 10× binding buffer in which BSA and DTI can be left out).
Binding buffer (10 mM Tris-HCl, pH 8.0, 50 mM KCl, 10 mM DTT, 0.02% BSA and 0.0 1% NP-40) is added in 80-μL amounts to the wells of the filtration plate. The test compound is then added in 10 μL of DMSO. The PPARγ-GST fusion protein and radiolabeled BRL compound are premixed in binding buffer containing 10 mM DTT and added in 10-μL amounts to the wells of the plate to provide final concentrations of 1 µg/well of PPARγ-GST fusion protein and 10 nM [^3H]-BRL 49653 compound. The plate is incubated for 15 min. Glutathione-agarose bead is added in 50 μL of binding buffer, and the plate is vigorously shaken for one hour. The plate is washed four times with 200 μL/well of binding buffer (without BSA and DTT). The bottom of the plate is sealed and 200 μL/well of scintillation cocktail is added. The top of the plate is then sealed and the radioactivity is determined.
IC50 values are defined as the concentration of test compounds required to reduce by 50% the specific binding of [^3H]-BRL 49653 and are represented by (+)<30 μM; (++)<10 μM; (+++)<1 μM.

In general, IC50 refers to the concentration needed to halve the response being measured. A high value points to weaker potency in that assay.

Take `CCC(=O)c1nc(NS(=O)(=O)c2ccc(Cl)cc2Cl)ccc1Sc1ccc(S(=O)(=O)N2CCOCC2)cc1` [Compound 86, 2,4-Dichloro-N-{5-[4-(morpholine-4-sulfonyl)-phenylsulfanyl]-6-propionyl-pyridin-2-yl}-benzenesulfonamide]: the IC50 was under 1000 nM.

Take `CCCCCc1nc(NS(=O)(=O)c2ccc(Cl)cc2)ncc1Sc1ccc(S(=O)(=O)N2CCCCC2)cc1` [Compound 48, 4-Chloro-N-{4-pentyl-5-[4-(piperidine-1-sulfonyl) -phenylsulfanyl]-pyrimidin-2-yl}-benzenesulfonamide]: the IC50 is under 1000 nM.

In turn, `CCC(CC)Nc1nc(NS(=O)(=O)c2ccc(Cl)cc2Cl)ncc1Sc1ccc(S(=O)(=O)N2CCCCC2)cc1` [Compound 18, 2,4-Dichloro-N-{4-(1-ethyl-propylamino)-5-[4-(piperidine-1-sulfonyl)-phenylsulfanyl]-pyrimidin-2-yl}-benzenesulfonamide] registered an IC50 of under 30000 nM.

Turning to `O=C(c1cc(NS(=O)(=O)c2ccc(Cl)cc2Cl)ncc1Sc1ccc(S(=O)(=O)N2CCCCC2)cc1)C1CC1` [Compound 128, 2,4-dichloro-N-{4-cyclopropanecarbonyl-5-[4-(piperidine-1-sulfonyl)-phenylsulfanyl]-pyridin-2-yl}-benzenesulfonamide], the IC50 was under 1000 nM.

The compound `CCCCCc1nc(NS(=O)(=O)c2ccc(Cl)cc2Cl)ncc1Sc1ccc(S(=O)(=O)N2CCCCC2)cc1` [Compound 47, 2,4-Dichloro-N-{4-pentyl-5-[4-(piperidine-1-sulfonyl) -phenylsulfanyl]-pyrimidin-2-yl}-benzenesulfonamide] returned an IC50 of under 1000 nM.

For the compound `CCCOc1nc(NS(=O)(=O)c2ccc(Cl)cc2)ncc1Oc1ccc(S(=O)(=O)N2CCOCC2)cc1` [Compound 29, 4-Chloro-N-{5-[4-(morpholine-4-sulfonyl)-phenoxy]-4-propoxy-pyrimidin-2-yl}-benzenesulfonamide], the IC50 was under 10000 nM.

Turning to `Cc1cc(S(=O)(=O)Nc2ccc(Sc3ccc(S(=O)(=O)N4CCCCC4)cc3)c(C)n2)c(Cl)cc1Cl` [Compound 61, 2,4-Dichloro-5-methyl-N-{6-methyl-5-[4-(piperidine-1-sulfonyl)-phenylsulfanyl]-pyridin-2-yl}-benzenesulfonamide], the IC50 was under 1000 nM.

`Cc1nc(NS(=O)(=O)c2ccc(Cl)cc2Cl)ccc1Sc1ccc(S(=O)(=O)N2CCOCC2)cc1` [Compound 77, 2,4-Dichloro-N-{6-methyl-5-[4-(morpholine-4-sulfonyl) -phenylsulfanyl]-pyridin-2-yl}-benzenesulfonamide] had an IC50 of under 1000 nM.

`O=C(c1nc(NS(=O)(=O)c2ccc(C(F)(F)F)cc2Cl)ccc1Sc1ccc(S(=O)(=O)N2CCOCC2)cc1)C1CC1` [Compound 88, 2-Chloro-N-{6-cyclopropanecarbonyl-5-[4-(morpholine-4-sulfonyl)-phenylsulfanyl]-pyridin-2-yl}-4-trifluoromethyl-benzenesulfonamide] had an IC50 of under 1000 nM.

On to `COC(=O)c1nc(NS(=O)(=O)c2ccc(Cl)cc2Cl)ccc1Sc1ccc(S(=O)(=O)N2CCCCC2)cc1` [Compound 70, 6-(2,4-Dichloro-benzenesulfonylamino)-3-[4-(piperidine-1-sulfonyl)-phenylsulfanyl]-pyridine-2-carboxylic acid methyl ester], for which the half-maximal inhibitory concentration (IC50) was under 1000 nM.

In the case of `CNc1nc(NS(=O)(=O)c2ccc(Cl)cc2Cl)ncc1Sc1ccc2ccccc2c1` [Compound 25, 2,4-Dichloro-N-[4-methylamino-5-(naphthalen-2-ylsulfanyl) -pyrimidin-2-yl]-benzenesulfonamide], the IC50 is under 30000 nM.

`CCCC(=O)c1nc(NS(=O)(=O)c2ccc(Cl)cc2Cl)ccc1Sc1ccc(S(=O)(=O)NCC)cc1` [Compound 118, N-[6-Butyryl-5-(4-ethylsulfamoyl-phenylsulfanyl)-pyridin-2-yl]-2,4-dichloro-benzenesulfonamide]: the IC50 was under 1000 nM.

As for `CCNc1nc(NS(=O)(=O)c2ccc(Cl)cc2Cl)ncc1Sc1ccc(S(=O)(=O)N2CCCCC2)cc1` [Compound 13, 2,4-Dichloro-N-{4-ethylamino-5-[4-(piperidine-1-sulfonyl) -phenylsulfanyl]-pyrimidin-2-yl}-benzenesulfonamide], the IC50 was under 1000 nM.

Consider `CCCOc1nc(NS(=O)(=O)c2ccc(Cl)cc2Cl)ncc1Sc1ccc(S(=O)(=O)N2CCCCC2)cc1` [Compound 28, 2,4-Dichloro-N-{5-[4-(piperidine-1-sulfonyl)-phenylsulfanyl]-4-propoxy-pyrimidin-2-yl}-benzenesulfonamide], for which the IC50 is under 1000 nM.

Compound `Cc1cc(Sc2ccc(S(=O)(=O)N3CCCCC3)cc2)nnc1NS(=O)(=O)c1ccc(C(F)(F)F)cc1Cl` [Compound 137, 2-Chloro-N-{4-methyl-6-[4-(piperidine-1-sulfonyl) -phenylsulfanyl]-pyridazin-3-yl}-4-trifluoromethyl-benzenesulfonamide] yielded an IC50 of under 10000 nM.

Take `CCc1nc(NS(=O)(=O)c2ccc(C(F)(F)F)cc2Cl)ccc1Sc1ccc(S(=O)(=O)N2CCOCC2)cc1` [Compound 105, 2-Chloro-N-{6-ethyl-5-[4-(morpholine-4-sulfonyl) -phenylsulfanyl]-pyridin-2-yl}-4-trifluoromethyl-benzenesulfonamide]: the IC50 is under 10000 nM.

Take `Cc1cc(NS(=O)(=O)c2ccc(C(F)(F)F)cc2Cl)ncc1Sc1ccc(S(=O)(=O)N2CCCCC2)cc1` [Compound 64, 2-Chloro-N-{4-methyl-5-[4-(piperidine-1-sulfonyl) -phenylsulfanyl]-pyridin-2-yl}-4-trifluoromethyl-benzenesulfonamide]: the IC50 was under 1000 nM.

`CCc1nc(NS(=O)(=O)c2ccc(Cl)cc2Cl)ccc1Sc1ccc(S(=O)(=O)N2CCOCC2)cc1` [Compound 104, 2,4-Dichloro-N-{6-ethyl-5-[4-(morpholine-4-sulfonyl) -phenylsulfanyl]-pyridin-2-yl}-benzenesulfonamide] registered an IC50 of under 10000 nM.

Turning to `CCCNc1nc(NS(=O)(=O)c2ccc(OC)cc2)ncc1Sc1ccc(S(=O)(=O)N2CCCCC2)cc1` [Compound 23, 4-Methoxy-N-{5-[4-(piperidine-1-sulfonyl)-phenylsulfanyl]-4-propylamino-pyrimidin-2-yl}-benzenesulfonamide], the 50% inhibitory concentration (IC50) is under 10000 nM.

On to `CCCC(=O)c1nc(NS(=O)(=O)c2ccc(C(F)(F)F)cc2Cl)ccc1Sc1ccc(S(=O)(=O)N2CCOCC2)cc1` [Compound 87, N-{6-Butyryl-5-[4-(morpholine-4-sulfonyl)-phenylsulfanyl]-pyridin-2-yl}-2-chloro-4-trifluoromethyl-benzenesulfonamide], for which the IC50 was under 1000 nM.

As to `O=C(c1nc(NS(=O)(=O)c2ccc(Cl)cc2Cl)ccc1Sc1ccc(S(=O)(=O)N2CCCC2)cc1)C1CC1` [Compound 95, 2,4-Dichloro-N-{6-cyclopropanecarbonyl-5-[4-(pyrrolidine-1-sulfonyl)-phenylsulfanyl]-pyridin-2-yl}-benzenesulfonamide], the IC50 is under 1000 nM.

`CC(C)Nc1nc(NS(=O)(=O)c2ccc(Cl)cc2Cl)ncc1Sc1ccc(S(=O)(=O)N2CCCCC2)cc1` [Compound 17, 2,4-Dichloro-N-{4-isopropylamino-5-[4-(piperidine-1-sulfonyl)-phenylsulfanyl]-pyrimidin-2-yl}-benzenesulfonamide] gave an IC50 of under 10000 nM.

Compound `O=C(c1nc(NS(=O)(=O)c2ccc(C(F)(F)F)cc2Cl)ccc1Sc1ccc(S(=O)(=O)C2CCCC2)cc1)C1CC1` [Compound 115, 2-Chloro-N-[5-(4-cyclopentanesulfonyl-phenylsulfanyl)-6-cyclopropanecarbonyl-pyridin-2-yl]-4-trifluoromethyl-benzenesulfonamide] registered an IC50 of under 1000 nM.

For `CCCSc1nc(NS(=O)(=O)c2ccc(Cl)cc2Cl)ncc1Sc1ccc(S(=O)(=O)N2CCCCC2)cc1` [Compound 32, 2,4-Dichloro-N-{5-[4-(piperidine-1-sulfonyl)-phenylsulfanyl]-4-propylsulfanyl-pyrimidin-2-yl}-benzenesulfonamide], the IC50 is under 1000 nM.
